In brackets after ≈: the same amount, converted by molar mass.
Tests used:
Gossypium hirsutum [1] = test: Phytotoxicity in Gossypium hirsutum (cotton) assessed as concentration required to cause foliar edge burn applied through foliar spray after 3 weeks; type: organism-based; details: in vivo, other, 504 h
Phaseolus lunatus [2] = test: Phytotoxicity in Phaseolus lunatus (lima bean) root assessed as root dry weight at 3.12 kg ai/ha applied to soil measured up to 14 days under green house conditions (reference value: 0.36 +/- 0.071 g); type: organism-based; details: in vivo, other, 336 h
Meloidogyne incognita [3] = test: Nematicidal activity against second juvenile stage of Meloidogyne incognita (root-knot nematode) infected lima bean plant assessed as emergence at 3 kg ai/ha applied to soil measured up to 14 days post planting under green house conditions (reference value: 83 +/- 5%); type: functional
Meloidogyne incognita [4] = test: Nematicidal activity against second juvenile stage of Meloidogyne incognita (root-knot nematode) infected lima bean plant assessed as emergence at 3 kg ai/ha applied to soil measured up to 7 days post planting under green house conditions (reference value: 83 +/- 5%); type: functional
Meloidogyne incognita [5] = test: Nematicidal activity against second juvenile stage of Meloidogyne incognita (root-knot nematode) infected lima bean plant assessed as reduction in root gall index at 2 kg ai/ha applied to soil measured during planting under green house conditions (reference value: 7 +/- 0.27%); type: functional
Gossypium hirsutum [6] = test: Phytotoxicity in Gossypium hirsutum (cotton) assessed as concentration required to cause foliar edge burn applied through foliar spray after 4 weeks; type: organism-based; details: in vivo, other, 672 h
Gossypium hirsutum [7] = test: Phytotoxicity in Gossypium hirsutum (cotton) assessed as concentration required to cause foliar edge burn applied to soil after 3 weeks; type: organism-based; details: in vivo, other, 504 h
Pisum sativum [8] = test: Phytotoxicity in Pisum sativum (pea) assessed as root dry weight at 4 kg ai/ha applied to soil measured up to 7 days post planting at 27 degC under green house conditions (reference value: 0.33 +/- 0.075 g); type: organism-based; details: lathyrus oleraceus, in vivo, other, 168 h
Trichoplusia ni = test: Insecticidal activity against Trichoplusia ni (cabbage looper) infested cabbage assessed as mortality applied through foliar spray after 72 hr; type: functional
Phaseolus lunatus [9] = test: Phytotoxicity in Phaseolus lunatus (lima bean) plant assessed as plant dry weight at 0.56 kg ai/ha applied to soil under green house conditions (reference value: 1.20 +/- 0.21 g); type: organism-based; details: in vivo, other
Pisum sativum [10] = test: Phytotoxicity in Pisum sativum (pea) assessed as root dry weight at 3 kg ai/ha applied to soil measured up to 7 days post planting at 27 degC under green house conditions (reference value: 0.33 +/- 0.075 g); type: organism-based; details: lathyrus oleraceus, in vivo, other, 168 h
Meloidogyne incognita [11] = test: Nematicidal activity against second juvenile stage of Meloidogyne incognita (root-knot nematode) infected pea plant assessed as root fresh weight at 2 kg ai/ha applied to soil measured up to 7 days post planting under green house conditions (reference value: 1.83 +/- 0.3 g); type: functional
Meloidogyne incognita [12] = test: Nematicidal activity against second juvenile stage of Meloidogyne incognita (root-knot nematode) infested soil containing cucumber seeds assessed as mortality applied post seed germination measured after 7 days under green house conditions; type: functional
Meloidogyne incognita [13] = test: Nematicidal activity against second juvenile stage of Meloidogyne incognita (root-knot nematode) infected pea plant assessed as plant fresh weight at 4 kg ai/ha applied to soil measured up to 7 days post planting under green house conditions (reference value: 4.3 +/- 0.56 g); type: functional
Meloidogyne incognita [14] = test: Nematicidal activity against second juvenile stage of Meloidogyne incognita (root-knot nematode) infected lima bean plant assessed as root dry weight at 2 kg ai/ha applied to soil measured during planting under green house conditions (reference value: 0.5 +/- 0.052 g); type: functional
Solanum lycopersicum = test: Phytotoxicity in Solanum lycopersicum (tomato) assessed as concentration required to cause foliar edge burn applied to soil after 5 weeks; type: organism-based; details: in vivo, 840 h
Meloidogyne incognita [15] = test: Nematicidal activity against second juvenile stage of Meloidogyne incognita (root-knot nematode) infected pea plant assessed as root dry weight at 3 kg ai/ha applied to soil measured up to 14 days post planting under green house conditions (reference value: 0.25 +/- 0.041 g); type: functional
Pisum sativum [16] = test: Phytotoxicity in Pisum sativum (pea) assessed as emergence at 3 kg ai/ha applied to soil measured up to 7 days post planting at 19 degC relative to untreated control; type: organism-based; details: lathyrus oleraceus, in vivo, other, 168 h
Meloidogyne incognita [17] = test: Nematicidal activity against second juvenile stage of Meloidogyne incognita (root-knot nematode) infected pea plant assessed as emergence at 4 kg ai/ha applied to soil measured up to 14 days post planting under green house conditions (reference value: 75 +/- 13%); type: functional
Pisum sativum [18] = test: Phytotoxicity in Pisum sativum (pea) assessed as emergence at 4 kg ai/ha applied to soil measured up to 7 days post planting at 19 degC relative to untreated control; type: organism-based; details: lathyrus oleraceus, in vivo, other, 168 h
Meloidogyne incognita [19] = test: Nematicidal activity against second juvenile stage of Meloidogyne incognita (root-knot nematode) infected lima bean plant assessed as emergence at 4 kg ai/ha applied to soil measured up to 14 days post planting under green house conditions (reference value: 83 +/- 5%); type: functional
Meloidogyne incognita [20] = test: Nematicidal activity against second juvenile stage of Meloidogyne incognita (root-knot nematode) infected pea plant assessed as root dry weight at 2 kg ai/ha applied to soil measured up to 7 days post planting under green house conditions (reference value: 0.25 +/- 0.041 g); type: functional
Meloidogyne incognita [21] = test: Nematicidal activity against second juvenile stage of Meloidogyne incognita (root-knot nematode) infected lima bean plant assessed as shoot dry weight at 3 kg ai/ha applied to soil measured up to 14 days post planting under green house conditions (reference value: 1.84 +/- 0.18 g); type: functional
Meloidogyne incognita [22] = test: Nematicidal activity against second juvenile stage of Meloidogyne incognita (root-knot nematode) infected pea plant assessed as plant fresh weight at 2 kg ai/ha applied to soil measured up to 7 days post planting under green house conditions (reference value: 4.3 +/- 0.56 g); type: functional
Phaseolus lunatus [23] = test: Phytotoxicity in Phaseolus lunatus (lima bean) root assessed as root dry weight at 2.12 kg ai/ha applied to soil measured up to 7 days under green house conditions (reference value: 0.36 +/- 0.071 g); type: organism-based; details: in vivo, other, 168 h
Pisum sativum [24] = test: Phytotoxicity in Pisum sativum (pea) assessed as plant height at 2 kg ai/ha applied to soil measured up to 7 days post planting at 19 degC (reference value: 6.2 +/- 0.6 cm); type: organism-based; details: lathyrus oleraceus, in vivo, other, 168 h
Pisum sativum [25] = test: Phytotoxicity in Pisum sativum (pea) assessed as plant fresh weight at 2 kg ai/ha applied to soil measured up to 7 days post planting at 27 degC under green house conditions (reference value: 3.9 +/- 0.83 g); type: organism-based; details: lathyrus oleraceus, in vivo, other, 168 h
Phaseolus lunatus [26] = test: Phytotoxicity in Phaseolus lunatus (lima bean) plant assessed as plant dry weight at 1.12 kg ai/ha applied to soil under green house conditions (reference value: 1.20 +/- 0.21 g); type: organism-based; details: in vivo, other
Meloidogyne incognita [27] = test: Nematicidal activity against second juvenile stage of Meloidogyne incognita (root-knot nematode) infected lima bean plant assessed as root dry weight at 1 kg ai/ha applied to soil measured during planting under green house conditions (reference value: 0.5 +/- 0.052 g); type: functional
Phaseolus lunatus [28] = test: Phytotoxicity in Phaseolus lunatus (lima bean) root assessed as root dry weight at 1.12 kg ai/ha applied to soil under green house conditions (reference value: 0.36 +/- 0.071 g); type: organism-based; details: in vivo, other

SMILES: CNC(=O)ON=C(C)SC [METHOMYL]
- Activity (Gossypium hirsutum [1]): 100 µg/mL
- Activity (Phaseolus lunatus [2]): 0.22 g
- Activity (Meloidogyne incognita [3]): 83%
- Activity (Meloidogyne incognita [4]): 83%
- Root_galling_index (Meloidogyne incognita [5]): 0%
- Activity (Gossypium hirsutum [6]): 500 µg/mL
- Activity (Gossypium hirsutum [7]): 100 µg/mL
- Activity (Pisum sativum [8]): 0.28 g
- LC90 (Trichoplusia ni): 533 µg/mL (≈ 3290 µM)
- LC50 (Trichoplusia ni; Trichoplusia ni, foliar, 72 h): 99 µg/mL (≈ 610 µM)
- Activity (Phaseolus lunatus [9]): 1.2 g
- Activity (Pisum sativum [10]): 0.2 g
- Activity (Meloidogyne incognita [11]): 2.04 g
- LC90 (Meloidogyne incognita [12]): 69.7 µg/mL (≈ 430 µM)
- LC50 (Meloidogyne incognita [12]; Meloidogyne incognita, Juvenile stage, 168 h): 10.2 µg/mL (≈ 62.9 µM)
- Activity (Meloidogyne incognita [13]): 5.5 g
- Activity (Meloidogyne incognita [14]): 0.36 g
- Activity (Solanum lycopersicum): 100 µg/mL
- Activity (Meloidogyne incognita [15]): 0.25 g
- Activity (Pisum sativum [16]): 87%
- Activity (Meloidogyne incognita [17]): 38%
- Activity (Pisum sativum [18]): 100%
- Activity (Meloidogyne incognita [19]): 83%
- Activity (Meloidogyne incognita [20]): 0.34 g
- Activity (Meloidogyne incognita [21]): 1.55 g
- Activity (Meloidogyne incognita [22]): 7.1 g
- Activity (Phaseolus lunatus [23]): 0.2 g
- Activity (Pisum sativum [24]): 7.3 cm
- Activity (Pisum sativum [25]): 3 g
- Activity (Phaseolus lunatus [26]): 1.51 g
- Activity (Meloidogyne incognita [27]): 0.44 g
- Activity (Phaseolus lunatus [28]): 0.35 g

Reference: ChEMBL document CHEMBL3045068, “Effect of methomyl and oxamyl soil applications on early control of nematodes and insects” (Pest Manag Sci, 2011)
